Assay results as given in patent US8664382B2, “Antibacterial compositions comprising metal phthalocyanine analogues” (Molteni Therapeutics S.r.l., priority 2002, dated 2014).

Assays:
E. coli ATCC 25922 = assay: Photoinactivation (biocidal activity) of E. coli cell suspension after red light irradiation; assay type: cell-based; settings: for concentration able to sterilize completely the cell suspension: in combination with EDTA 0.5 mM, 100 mW/cm2 red light (FIG. 2, FIG. 5)
Protocol: These microorganisms were used in the experiments in a stationary phase of growth.
(§1) The experimental protocol was the following:
(§2) The cell suspensions were diluted in an appropriate medium. Addition of an aliquot of stock solution of the composition to be tested to the cell suspension up to the intended final concentrations. Incubation in dark at 37° C. for 5 minutes. Irradiation (650≦λ≦850 nm; 50÷100 mW/cm2; 1÷10 minutes) of cell suspension for each dilution of the photosensitising composition.

[1] = tested on: Pseudomonas aeruginosa PAO-1; assay: Photoinactivation (biocidal activity) of Pseudomonas aeruginosa cell suspension after red light irradiation; assay type: cell-based
Protocol: The usefulness of the pharmaceutical compositions of the present invention has been evaluated through their activity against the Gram negative micro-organisms Pseudomonas aeruginosa PAO-1 and E. coli ATCC 25922. These microorganisms were used in the experiments in a stationary phase of growth.
as §1, §2

{2,3,9,10,16,17,23,24-octa[3-(N,N,N-trimethylammonium)phenoxy]zinc(II) phthalocyanine}octaiodide [compound 1]
reduction of the initial population (E. coli ATCC 25922; compound alone, no chelating agent, 5 min incubation, irradiation 100 mW/cm2 red light (FIG. 1)): 4 log | complete sterilization of the cell suspension (E. coli ATCC 25922; compound alone, no chelating agent, irradiation 100 mW/cm2 red light (FIG. 1)): cannot be obtained | concentration able to sterilize completely the cell suspension (E. coli ATCC 25922; 5 min incubation): 1 µM | concentration up to which not active (photoinactivation) ([1]; compound alone, no chelating agent, 100 mW/cm2 red light (FIG. 3)): > 40 µM | reduction of the population ([1]; with EDTA 0.5 mM, 1 μM concentration, 100 mW/cm2 red light (FIG. 3a)): 5 log | concentration able to sterilize the cell suspension ([1]; with EDTA 0.5 mM, 100 mW/cm2 red light (FIG. 3a)): 5 µM

{2(3),9(10),16(17),23(24)-tetra[1,3-bis-(trimethylammonium)propyl-2-oxy]zinc(II) phthalocyanine}octaiodide [compound 2]
concentration able to sterilize completely the cell suspension (E. coli ATCC 25922; 5 min incubation): 1 µM | photosensitizer concentration necessary to sterilize the cell suspension (E. coli ATCC 25922; without EDTA, 5 min incubation, 100 mW/cm2 red light (FIG. 5a)): 20 µM
